Literature values in patent publication US6353028B2, “Composition and method for topically treating Peyronie's Disease, Dupuytren's hand contracture, Ledderhose Fibrosis, erectile dysfunction arising from plaque accumulations, and scarring” (priority 1998, dated 2002).

Tested on: Peyronie's disease
Settings: intra-lesional injection

## COc1ccc(CCN(C)CCCC(C#N)(c2ccc(OC)c(OC)c2)C(C)C)cc1OC (stereo not shown) [Verapamil]
  success of intra-lesional injections in Peyronie's disease: very limited success
